Assay results published in patent US20240025862A1, “SUBSTITUTED N-PHENYLURACILS AND SALTS THEREOF, AND USE THEREOF AS HERBICIDAL ACTIVE SUBSTANCES” (Bayer Aktiengesellschaft, priority 2020, published 2024).

How the values were obtained:
Type in all cases: in vivo
[1] = system: Pharbitis purpurea (PHBPU); assay: Post-emergence herbicidal action, greenhouse pot test; conditions: Ipomoea purpurea, 504 h, read-out: Post-emergence action against PHBPU in %
In short: (§1)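 Greenhouse-grown weeds in sandy loam were sprayed post-emergence at the one-leaf stage, 2–3 weeks after sowing. Compounds were formulated as WP or EC in water with 0.5% additive at 600 l/ha, at rates of 20 g/ha or less. Visual rating after about 3 weeks used a scale from 0% (like untreated control) to 100% (plants dead).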

[2] = system: Avena fatua (AVEFA); assay: as above; conditions: Avena fatua, 504 h, 20 g/ha, rated visually after about 3 weeks vs untreated controls, 100% = plants have died, read-out: Post-emergence action at 20 g/ha against AVEFA in %
In short: as §1

[3] = system: Abutilon theophrasti (ABUTH); assay: as above; conditions: Abutilon theophrasti, 504 h, rated visually after about 3 weeks vs untreated controls, 100% = plants have died
In short: as §1

[4] = system: Amaranthus retroflexus (AMARE); assay: as above; conditions: Amaranthus retroflexus, 504 h, rated visually after about 3 weeks vs untreated controls, 100% = plants have died
In short: as §1

[5] = system: Lolium rigidum (LOLRI); assay: as above
In short: as §1

[6] = system: Viola tricolor (VIOTR); assay: as above; conditions: Viola tricolor, 504 h, read-out: Post-emergence action against VIOTR
In short: as §1

[7] = system: Veronica persica (VERPE); assay: as above; conditions: Veronica persica, 504 h, read-out: Post-emergence action against VERPE
In short: as §1

[8] = system: Setaria viridis (SETVI); assay: Post-emergence herbicidal action, greenhouse pot test (also comparative test C); conditions: Setaria viridis, 504 h
In short: (§2)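 Visual rating against untreated controls, about 3 weeks after spraying, from 0% (like control) to 100% (plants dead). Weeds were treated at the one-leaf stage, 2–3 weeks after sowing in sandy loam, with aqueous WP/EC spray containing 0.5% additive at 600 l/ha. Doses were ≤20 g/ha, or ≤5 g/ha for comparative test C.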

[9] = system: Echinochloa crus-galli (ECHCG); assay: as above
In short: as §2

[10] = system: Alopecurus myosuroides (ALOMY); assay: as above; conditions: rated visually after about 3 weeks vs untreated controls, 100% = plants have died
In short: as §2

[11] = system: Matricaria inodora (MATIN); assay: as above; conditions: Tripleurospermum inodorum, 504 h, read-out: Post-emergence action against MATIN in %
In short: as §2

[12] = system: Oryza sativa (ORYSA); assay: Post-emergence crop plant compatibility, greenhouse pot test (also comparative test C); conditions: 1.25 g/ha, vs untreated controls
In short: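 Rice and other crops sprayed post-emergence at one-leaf stage (2–3 weeks after sowing) with WP or EC formulations plus 0.5% additive at 600 l/ha water. Visual rating about 3 weeks later versus untreated controls (100% = dead, 0% = like control); suffixes a–c denote different doses.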

[13] = system: Triticum aestivum (TRZAS); assay: Post-emergence crop plant compatibility, greenhouse pot test; conditions: vs untreated controls
In short: (§3)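 Seeds are sown in sandy loam and grown under controlled greenhouse conditions. At the one-leaf stage (2–3 weeks), foliage is sprayed with the formulated compound in water containing 0.5% additive at 600 l/ha. About 3 weeks later, injury is rated visually in % against untreated plants.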

[14] = system: Brassica napus (BRSNW); assay: as above; conditions: for Post-emergence action against BRSNW (crop plant compatibility): vs untreated controls
In short: as §3

Cn1c(C(F)(F)F)cc(=O)n(-c2cc(Oc3ccccc3OCC(=O)OCc3ccccn3)c(Cl)cc2F)c1=O [I.7-276, Pyridin-2-ylmethyl (2-{2-chloro-4-fluoro-5-[3-methyl-2,6-dioxo-4-(trifluoromethyl)-3,6-dihydropyrimidin-1(2H)-yl]phenoxy}phenoxy)acetate]
90%: pest or weed control at 20 g/ha [2] | Post-emergence action at 1.25 g/ha against ECHCG in % ([9]; 1.25 g/ha, rated visually after about 3 weeks vs untreated controls, 100% = plants have died) | Post-emergence action at 1.25 g/ha against ALOMY in % ([10]; 1.25 g/ha)
0%: Post-emergence action against ORYSA (crop plant compatibility) [12]
100%: pest or weed control at 1.25 g/ha ([1]; dosage 1.25 g/ha) | pest or weed control at 5 g/ha ([1]; dosage 5 g/ha) | pest or weed control at 20 g/ha ([1]; dosage 20 g/ha) | pest or weed control at 1.25 g/ha ([3]; 1.25 g/ha, read-out: Post-emergence action at 1.25 g/ha against ABUTH in %) | pest or weed control at 5 g/ha ([3]; 5 g/ha, read-out: Post-emergence action at 5 g/ha against ABUTH in %) | pest or weed control at 20 g/ha ([3]; 20 g/ha, read-out: Post-emergence action at 20 g/ha against ABUTH in %) | pest or weed control at 1.25 g/ha ([4]; 1.25 g/ha, read-out: Post-emergence action at 1.25 g/ha against AMARE in %) | pest or weed control at 5 g/ha ([4]; 5 g/ha, read-out: Post-emergence action at 5 g/ha against AMARE in %) | pest or weed control at 20 g/ha ([4]; 20 g/ha, read-out: Post-emergence action at 20 g/ha against AMARE in %) | pest or weed control at 20 g/ha ([5]; Lolium rigidum, 504 h, dosage 20 g/ha, read-out: Post-emergence action against LOLRI in %) | pest or weed control at 1.25 g/ha ([6]; 1.25 g/ha) | pest or weed control at 5 g/ha ([6]; 5 g/ha) | pest or weed control at 20 g/ha ([6]; 20 g/ha) | pest or weed control at 1.25 g/ha ([7]; 1.25 g/ha) | pest or weed control at 5 g/ha ([7]; 5 g/ha) | pest or weed control at 20 g/ha ([7]; 20 g/ha) | pest or weed control at 20 g/ha ([8]; 20 g/ha, read-out: Post-emergence action against SETVI) | pest or weed control at 1.25 g/ha ([8]; dosage 1.25 g/ha, read-out: Post-emergence action against SETVI in %) | pest or weed control at 5 g/ha ([8]; dosage 5 g/ha, read-out: Post-emergence action against SETVI in %) | pest or weed control at 5 g/ha ([9]; Echinochloa crus-galli, 504 h, dosage 5 g/ha, read-out: Post-emergence action against ECHCG in %) | pest or weed control at 20 g/ha ([9]; Echinochloa crus-galli, 504 h, dosage 20 g/ha, read-out: Post-emergence action against ECHCG in %) | pest or weed control at 5 g/ha ([10]; Alopecurus myosuroides, 504 h, 5 g/ha, read-out: Post-emergence action at 5 g/ha against ALOMY in %) | pest or weed control at 20 g/ha ([10]; Alopecurus myosuroides, 504 h, 20 g/ha, read-out: Post-emergence action at 20 g/ha against ALOMY in %) | pest or weed control at 1.25 g/ha ([11]; dosage 1.25 g/ha) | pest or weed control at 5 g/ha ([11]; dosage 5 g/ha) | pest or weed control at 20 g/ha ([11]; dosage 20 g/ha)
20%: Post-emergence action against TRZAS (crop plant compatibility) ([13]; 1.25 g/ha) | Post-emergence action against TRZAS (crop plant compatibility) ([13]; 5 g/ha) | Post-emergence action against BRSNW (crop plant compatibility) ([14]; 1.25 g/ha) | Post-emergence action at 5 g/ha against BRSNW in % ([14]; 5 g/ha, crop plant compatibility, observed effects on crop plant in comparison to untreated controls) | Post-emergence action against BRSNW (crop plant compatibility) ([14]; 20 g/ha)
80%: Post-emergence action at 5 g/ha against LOLRI in % ([5]; 5 g/ha, rated visually after about 3 weeks vs untreated controls, 100% = plants have died)
